Results on 48 compounds are retold here after patent publication US9051342B2 (priority 2004, dated 2015).

The structures appear in SMILES notation.

Usually melting point stands for the temperature of the solid-liquid transition.

`O=C(O)c1cccc(-n2cc(-c3ccc(F)cc3F)cn2)c1` [Compound 103, 3-[4-(2,4-Difluoro-phenyl)-pyrazol-1-yl]-benzoic acid] returned a melting point of 283 to 285 °C.
Compound `O=C(O)c1ccc(-n2cc(-c3ccc(F)cc3F)cn2)cc1` [Compound 104, 4-[4-(2,4-Difluoro-phenyl)-pyrazol-1-yl]-benzoic acid] yielded a melting point of 291 to 293 °C.
The value for `CC(C)c1ccc(-n2ccc(-c3ccc(C(=O)O)cc3)c2)cc1` [Compound 106, 4-[1-(4-Isopropyl-phenyl)-1H-pyrrol-3-yl]-benzoic acid] was 240 to 243 °C.
The result for `O=C(O)c1cccc(-n2cc(-c3ccc(OC(F)F)cc3)cn2)c1` [Compound 107, 3-[4-(4-Difluoromethoxy-phenyl)-pyrazol-1-yl]-benzoic acid] reads 118 to 120 °C; that for `Nc1ccc(-c2cnn(-c3cccc(C(=O)O)c3)c2)cc1` [Compound 108, 3-[4-(4-Amino-phenyl)-pyrazol-1-yl]-benzoic acid], 209 to 210 °C.
Regarding `COc1cccc(-c2cnn(-c3ccc(C(=O)O)cc3)c2)c1` [Compound 109, 4-[4-(3-Methoxy-phenyl)-pyrazol-1-yl]-benzoic acid], the melting point is 222 to 223 °C.
On to `CN(C)c1ccc(-c2cnn(-c3cccc(C(=O)O)c3)c2)cc1` [Compound 110, 3-[4-(4-Dimethylamino-phenyl)-pyrazol-1-yl]-benzoic acid], for which the melting point was 224 to 225 °C.
`O=C(O)c1cccc(-n2cc(-c3ccc4c(c3)OCO4)cn2)c1` [Compound 111, 3-(4-Benzo[1,3]dioxol-5-yl-pyrazol-1-yl)-benzoic acid] registered a melting point of 264 to 265 °C.
On to `COc1cccc(-c2cnn(-c3cccc(C(=O)O)c3)c2)c1` [Compound 112, 3-[4-(3-Methoxy-phenyl)-pyrazol-1-yl]-benzoic acid], for which the melting point fell in the range of 157 to 158 °C.
Take `O=C(O)c1cccc(-n2cc(-c3ccccn3)cn2)c1` [Compound 113, 3-(4-Pyridin-2-yl-pyrazol-1-yl)-benzoic acid]: the melting point fell in the range of 243 to 245 °C.
The value for `O=C(O)c1ccc(-n2cc(-c3ccccn3)cn2)cc1` [Compound 114, 4-(4-Pyridin-2-yl-pyrazol-1-yl)-benzoic acid] was 260 to 262 °C.
The result for `O=C(O)c1cccc(-n2cc(-c3ccncc3)cn2)c1` [Compound 115, 3-(4-Pyridin-4-yl-pyrazol-1-yl)-benzoic acid] reads 300 to 302 °C; that for `O=C(O)c1ccc(-n2cc(-c3ccncc3)cn2)cc1` [Compound 116, 4-(4-Pyridin-4-yl-pyrazol-1-yl)-benzoic acid], greater than 350 °C; that for `O=C(O)c1cccc(-n2cc(-c3ccncn3)cn2)c1` [Compound 117, 3-(4-Pyrimidin-4-yl-pyrazol-1-yl)-benzoic acid], 297 to 299 °C.
The value for `O=C(O)c1ccc(-n2cc(-c3ccncn3)cn2)cc1` [Compound 118, 4-(4-Pyrimidin-4-yl-pyrazol-1-yl)-benzoic acid] was greater than 350 °C; that for `O=C(O)c1cccc(-n2cc(-c3cnccn3)cn2)c1` [Compound 119, 3-(4-Pyrazin-2-yl-pyrazol-1-yl)-benzoic acid] was 310 to 311 °C.
Consider `O=C(O)c1ccc(-n2cc(-c3cnccn3)cn2)cc1` [Compound 120, 4-(4-Pyrazin-2-yl-pyrazol-1-yl)-benzoic acid], for which the melting point was in the range of 319 to 321 °C.
The value for `O=C(O)c1cccc(-n2cc(-c3nc4ccccc4o3)cn2)c1` [Compound 121, 3-(4-Benzooxazol-2-yl-pyrazol-1-yl)-benzoic acid] was 331 to 333 °C; that for `O=C(O)c1cccc(-n2cc(-c3cnc4ccccc4n3)cn2)c1` [Compound 122, 3-(4-Quinoxalin-2-yl-pyrazol-1-yl)-benzoic acid] was 325 to 326 °C.
`O=C(O)c1cccc(-n2cc(-c3ccc4ccccc4n3)cn2)c1` [Compound 123, 3-(4-Quinolin-2-yl-pyrazol-1-yl)-benzoic add] gave a melting point of 250 to 252 °C.
The result for `O=C(O)c1cccc(-c2ccn(-c3ccc(OC(F)F)cc3)n2)c1` [Compound 124, 3-[1-(4-Difluoromethoxy-phenyl)-1H-pyrazol-3-yl]-benzoic acid] reads 182 to 183 °C.
In turn, `CCc1ccc(-n2ccc(-c3cccc(C(=O)O)c3)c2)cc1` [Compound 125, 3-[1-(4-Ethyl-phenyl)-1H-pyrrol-3-yl]-benzoic acid] had a melting point of 190 to 192 °C.
The value for `O=C(O)c1ccc(-c2ccn(-c3ccc(F)c(F)c3)c2)cc1` [Compound 127, 4-[1-(3,4-Difluoro-phenyl)-1H-pyrrol-3-yl]-benzoic acid] was 231 to 233 °C.
The result for `O=C(O)c1ccc(-c2ccn(-c3cccc(C(F)(F)F)c3)c2)cc1` [Compound 128, 4-[1-(3-Trifluoromethyl-phenyl)-1H-pyrrol-3-yl]-benzoic acid] reads 209 to 211 °C; that for `CCc1ccc(-n2ccc(-c3ccc(C(=O)O)cc3)c2)cc1` [Compound 129, 4-[1-(4-Ethyl-phenyl)-1H-pyrrol-3-yl]-benzoic acid], 278 to 280 °C; that for `O=C(O)c1ccc(-c2ccn(-c3ccccc3)c2)cc1` [Compound 130, 4-(1-Phenyl-1H-pyrrol-3-yl)-benzoic acid], 239 to 241 °C.
`O=C(O)c1ccc(-c2ccn(-c3ccc(OC(F)(F)F)cc3)c2)cc1` [Compound 131, 4-[1-(4-Trifluoromethoxy-phenyl)-1H-pyrrol-3-yl]-benzoic acid]: the melting point lay within 318 to 320 °C.
The result for `O=C(O)c1cccc(-c2cnn(-c3ccc(OC(F)(F)F)cc3)c2)c1` [Compound 133, 3-[1-(4-Trifluoromethoxy-phenyl)-1H-pyrazol-4-yl]-benzoic acid] reads 213 to 215 °C.
The result for `O=C(O)c1ccc(-c2cnn(-c3ccc(OC(F)(F)F)cc3)c2)cc1` [Compound 134, 4-[1-(4-Trifluoromethoxy-phenyl)-1H-pyrazol-4-yl]-benzoic acid] reads 246 to 248 °C; that for `O=C(O)c1cccc(-n2ncc3c2CCc2ccccc2-3)c1` [Compound 135, 3-(4,5-Dihydro-benzo[e]indazol-3-yl)-benzoic acid], 273 to 275 °C; that for `O=C(O)c1cccc(-n2ncc3c2Cc2ccccc2-3)c1` [Compound 136, 3-(8H-Indeno[2,1-c]pyrazol-1-yl)-benzoic acid], 241 to 243 °C.
The result for `O=C(O)c1cccc(-n2cc3c(n2)-c2ccccc2CC3)c1` [Compound 137, 3-(4,5-Dihydro-benzo[g]indazol-2-yl)-benzoic acid] reads 191 to 192 °C; that for `O=C(O)c1cccc(-n2cc3c(n2)-c2ccccc2C3)c1` [Compound 138, 3-(4H-Indeno[1,2-c]pyrazol-2-yl)-benzoic acid], 249 to 250 °C.
`COc1ccc2c(c1)Cc1cn(-c3cccc(C(=O)O)c3)nc1-2` [Compound 139, 3-(6-Methoxy-4H-indeno[1,2-c]pyrazol-2-yl)-benzoic acid]: the melting point fell in the range of 272 to 273 °C.
The value for `COc1ccc2c(c1)-c1nn(-c3cccc(C(=O)O)c3)cc1C2` [Compound 140, 3-(7-Methoxy-4H-indeno[1,2-c]pyrazol-2-yl)-benzoic acid] was 225 to 227 °C; that for `O=C(O)c1cccc(-n2cc3c(n2)CCc2ccccc2-3)c1` [Compound 141, 3-(4,5-Dihydro-benzo[e]indazol-2-yl)-benzoic acid] was 233 to 234 °C.
The value for `COc1ccc2c(c1)CCc1cn(-c3cccc(C(=O)O)c3)nc1-2` [Compound 142, 3-(7-Methoxy-4,5-dihydro-benzo[g]indazol-2-yl)-benzoic acid] was 217 to 218 °C; that for `COc1ccc2c(c1)-c1nn(-c3cccc(C(=O)O)c3)cc1CC2` [Compound 143, 3-(8-Methoxy-4,5-dihydro-benzo[g]indazol-2-yl)-benzoic acid] was 192 to 193 °C; that for `O=C(O)c1cccc(-n2cc3c(n2)-c2ccccc2OC3)c1` [Compound 144, 3-(4H-Chromeno[4,3-c]pyrazol-2-yl)-benzoic acid] was 227 to 228 °C.
The result for `COc1ccc2c(c1)-c1nn(-c3ccc(C(=O)O)cc3)cc1CC2` [Compound 145, 4-(8-Methoxy-4,5-dihydro-benzo[g]indazol-2-yl)-benzoic acid] reads 290 to 292 °C; that for `O=C(O)c1cccc(-n2cc3c(n2)Cc2ccccc2-3)c1` [Compound 146, 3-(8H-Indeno[2,1-c]pyrazol-2-yl)-benzoic acid], 246 to 248 °C.
`COc1cccc2c1CCc1cn(-c3cccc(C(=O)O)c3)nc1-2` [Compound 147, 3-(6-Methoxy-4,5-dihydro-benzo[g]indazol-2-yl)-benzoic acid] registered a melting point of 232 to 233 °C.
Consider `COc1cccc2c1CCc1cn(-c3ccc(C(=O)O)cc3)nc1-2` [Compound 148, 4-(6-Methoxy-4,5-dihydro-benzo[g]indazol-2-yl)-benzoic acid], for which the melting point fell in the range of 288 to 290 °C.
The result for `COc1ccc2c(c1)-c1nn(-c3ccc(C(=O)O)cc3)cc1C2` [Compound 149, 4-(7-Methoxy-4H-indeno[1,2-c]pyrazol-2-yl)-benzoic acid] reads 304 to 306 °C.
Compound `O=C(O)c1ccc(-c2ccn(-c3ccc4c(c3)OCCO4)c2)cc1` [Compound 150, 4-[1-(2,3-Dihydro-benzo[1,4]dioxin-6-yl)-1H-pyrrol-3-yl]-benzoic acid] had a melting point of 273 to 276 °C.
The value for `O=C(O)c1ccc(-c2ccn(-c3ccccc3F)c2)cc1` [Compound 151, 4-[1-(2-Fluoro-phenyl)-1H-pyrrol-3-yl]-benzoic acid] was 202 to 204 °C; that for `O=C(O)c1ccc(-c2ccn(-c3cccc(F)c3)c2)cc1` [Compound 152, 4-[1-(3-Fluoro-phenyl)-1H-pyrrol-3-yl]-benzoic acid] was 211 to 213 °C; that for `O=C(O)c1ccc(-c2ccn(-c3cc(F)cc(F)c3)c2)cc1` [Compound 153, 4-[1-(3,5-Difluoro-phenyl)-1H-pyrrol-3-yl]-benzoic acid] was 243 to 245 °C.
